Assay results: publication PMC11184559, “Identification and Validation of Compounds Targeting Leishmania major Leucyl-Aminopeptidase M17” (ACS Infectious Diseases, 2024)
Like-named read-outs stand apart in the source and are kept apart here.

Columns and labels:
[1] = tested on: L. donovani intracellular amastigotes; test: Leishmania donovani intracellular (intramacrophage) assay, single concentration; assay type: cell-based; conditions: 96 h, intracellular amastigotes in macrophages, Hoechst imaging; for Inhibition of L. donovani proliferation (%): 50 μM; for inhibition at 50 µM: Leishmania donovani, Macrophage, read-out: Inhibition of L. donovani proliferation (%)
Experimental: The effect of the compounds selected as inhibitors of rLmLAP on the proliferation of L. donovani amastigotes was evaluated at a concentration of 50 μM. Macrophage cultures (ECACC, catalog number: 88081201) were used as host cells. Parasites were incubated with 4.27× 10^7 macrophages, at a multiplicity of infection (MOI) of 5, at 37 °C with 5% CO2, overnight in DMEM medium supplemented with 4.5 g/L glucose and glutamine and 10% FBS, in a Millicell HY T-600 three-layer culture flask (Merck Millipore, Solna, Sweden). […] Macrophages were incubated for another 24 h in the above conditions with 133 μL of fresh DMEM medium prewarmed at 37 °C and supplemented with 10% FBS to obtain a high count of intracellular amastigotes.
Forty-two hours after macrophage infection, compounds (50 μM, 250 nL in DMSO) were dispensed using LabCyte ECHO into each well of 384-well dark flat bottom plates (Corning, New York, USA). The plates were incubated at 37 °C, 5% CO2, for 4 h (without compounds, with DMSO, to determine the initial level of infection) and for 96 h (with and without compounds).

[2] = tested on: LmLAP-overexpressing L. major promastigotes; test: Drug sensitivity assay (resazurin), LmLAP-overexpressing L. major promastigotes; assay type: cell-based; conditions: Leishmania major
Experimental: The basic L. major cytosolic leucyl aminopeptidase gene (LmjF.23.0950) was synthesized (GeneArt, Invitrogen) and cloned into the overexpression vector pIRT1_SAT by using BglII restriction sites. The pIRT1_SAT_LmLAP construct was sequenced to confirm correct sequence. Mid log phase L. major cells (1 × 10^7 cells) were transfected with 10 μg of heat-sterilized DNA using the Human T-Cell Nucleofector kit and AMAXA Nucleofector electroporator (program V-033). After a 24 h recovery period, nourseothricin was added to cultures to a final concentration of 100 μg/mL.
L. major promastigotes were seeded in 96-well plates at 5 × 10^4/mL, exposed to 2-fold serial dilutions of test compounds, and incubated at 28 °C for 72 h. Resazurin was, then, added to each well to a final concentration of 50 μM, and fluorescence was measured after 2–3 h (excitation of 528 nm and emission of 590 nm). The EC50 was calculated by processing the collected data by GRAFIT (version 5.0.4, Erithacus Software) and fitting them to the following two-parameter equation: [drawing 6] 6 where [I] is the inhibitor concentration, and m is the slope. Experiments were performed on at least three independent biological replicates. Data are presented as the weighted mean ± standard deviation.

[3] = tested on: LmjF.35.1670 (60S ribosomal protein L26, putative); test: Isothermal TPP (iTPP) thermal stabilization, LmjF.35.1670; assay type: binding, Leishmania major; conditions: L. major promastigote lysate, 47 °C, compound at 10× EC50 vs DMSO
Experimental: (§1) Cell lysates were obtained as detailed above. Isothermal TPP assays were performed as previously described[29] but here lysates were incubated at two temperatures: 28 and 47 °C. The first temperature (28 °C) acts as a control temperature at which the protein levels are not altered by the presence of the test compound. The second temperature (47 °C) is the Leishmania spp. median Tm (melting temperature or temperature 50%) according to our interim data. […] These samples were aliquoted and submitted to a temperature shock at the designated temperature for 3 min, then 3 min at room temperature, and finally 3 min on ice. The soluble part was isolated by ultracentrifugation (100,000g, 20 min, 4 °C).
(§2) All aspects of sample processing, TMT-labeling, fractionation by HPLC into 10 fractions, LC-MS/MS, and protein identification and quantitation were described previously.[28],[68] Proteins with less than three peptides and those with increased stability at 28 °C were disregarded.
(§3) Proteins were identified by searching the MS and MS/MS data for the peptides against L. major strain Friedlin (TriTryp version 61, tritrypdb.org) using MaxQuant (http://maxquant.org/, version 2.1.4.0). All proteomics data sets have been deposited to the ProteomeXchange Consortium via the PRIDE[69] partner repository with the identifier PXD00000. Data were analyzed with Perseus v 1.6.15.[70] The reporter intensities of each protein were extracted and normalized to the control temperature reporter intensity (28 °C), then these normalized values were used to calculate the log2 transformed fold-changes (FC) of […] samples. Proteins stabilized (log2 FC > 1 in both replicates) were selected as putative hits.

[4] = tested on: RAW 264.7 murine macrophages; conditions: 100 μM, 48 h, MTT
Description: Blank contains only culture medium. […] Each assay was developed in triplicate.

[5] = molecular target: rLmLAP (Leishmania major, UniProt Q7KF27); test: Mode of inhibition studies for rLmLAP (Leu-pNA, Lineweaver-Burk); assay type: biochemical; conditions: for Modality of rLmLAP inhibition: Lineweaver-Burk, 0, 15, 30, 60 μM inhibitor, L-Leu-pNA 0.59-300 μM
Experimental: The aminopeptidase enzymatic activity was determined by a continuous kinetic method.[26] The reaction was performed in 50 mM sodium phosphate, pH 7.0, in the presence of 13.9 nM rLmLAP (which is within the linear range of the v0 vs. enzyme concentration relationship) and 30 μM (1 appKM; 23) of the chromogenic substrate L-Leu-p-nitroanilide (Leu-pNA; 2 μL, in DMSO). The reaction was carried out at 25 °C in 96-well microplates (200 μL final volume), in a microplate spectrophotometer (FLUOstar OPTIMA, Germany). The increase of the absorbance at 405 nm (due to the release of the pNA chromogen) was recorded every 15 s for 5 min. Only the linear ranges of the typical curves, corresponding to substrate consumptions lower than 5% (v0 conditions) were used to measure the reaction velocity. Slopes with determination coefficients (R^2) < 0.98 were not considered for linear fits.
For the determination of the inhibition mode, inhibitors were used at 0, 15, 30, and 60 μM. For each inhibitor concentration, the substrate Leu-pNA was added at different concentrations (0.59–300 μM). Experimental data were transformed, and the Lineweaver–Burk double reciprocal plots were constructed. The following equation was used: [drawing 3] 3 where appvmax is the apparent maximal rate of the reaction, and [S]0 is the initial substrate concentration.[26] The inhibition type was determined graphically from the lines of the double reciprocal plots.[26]

[6] = tested on: LmjF.11.0630 (metallo-peptidase, Clan MF, Family M17); test: Isothermal TPP (iTPP) thermal stabilization, LmjF.11.0630; assay type: binding, Leishmania major; conditions: L. major promastigote lysate, 47 °C, compound at 10× EC50 vs DMSO
Experimental: as §1, §2, §3

[7] = tested on: LmjF.23.0040 (peroxidoxin); test: Isothermal TPP (iTPP) thermal stabilization, LmjF.23.0040; assay type: binding, Leishmania major; conditions: L. major promastigote lysate, 47 °C, compound at 10× EC50 vs DMSO
Experimental: as §1, §2
Proteins were identified by searching the MS and MS/MS data for the peptides against L. major strain Friedlin (TriTryp version 61, tritrypdb.org) using MaxQuant (http://maxquant.org/, version 2.1.4.0). All proteomics data sets have been deposited to the ProteomeXchange Consortium via the PRIDE[69] partner repository with the identifier PXD00000. Data were analyzed with Perseus v 1.6.15.[70] […]

[8] = 72 h, read-out: EC50 (weighted mean), LmLAP-overexpressing (LAP-OE) L. major promastigotes
[9] = read-out: EC50 (LAP-OE), representative curve

Chain of rLmLAP (Q7KF27 entry or part of it): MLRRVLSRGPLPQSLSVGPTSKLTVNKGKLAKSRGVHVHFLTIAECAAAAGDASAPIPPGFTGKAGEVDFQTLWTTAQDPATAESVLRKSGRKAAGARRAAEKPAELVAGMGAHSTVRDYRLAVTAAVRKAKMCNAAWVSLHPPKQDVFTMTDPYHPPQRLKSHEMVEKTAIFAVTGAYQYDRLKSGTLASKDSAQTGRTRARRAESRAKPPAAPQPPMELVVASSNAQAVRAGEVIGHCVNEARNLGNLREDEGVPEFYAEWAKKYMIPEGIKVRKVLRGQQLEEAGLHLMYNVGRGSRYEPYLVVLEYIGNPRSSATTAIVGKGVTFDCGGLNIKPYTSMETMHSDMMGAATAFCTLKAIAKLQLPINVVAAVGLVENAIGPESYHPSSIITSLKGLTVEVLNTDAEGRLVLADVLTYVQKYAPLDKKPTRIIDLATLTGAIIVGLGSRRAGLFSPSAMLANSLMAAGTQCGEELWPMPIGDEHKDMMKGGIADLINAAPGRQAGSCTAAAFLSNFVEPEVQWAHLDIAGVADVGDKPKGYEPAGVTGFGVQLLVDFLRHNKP

Row | Structure (SMILES) | Inhibition of L. donovani proliferation (%) [1] | inhibition at 50 µM [1] | EC50 [2, 8] | EC50 [2, 9] | Enrichment (log2) replica A, LmjF.35.1670 [3] | Enrichment (log2) replica B, LmjF.35.1670 [3] | Maximum inhibitory effect, RAW 264.7 macrophage cell line [4] | Modality of rLmLAP inhibition [5] | α (noncompetitive inhibition mechanism) ([5]; α > 1: preferential binding to free enzyme) | Enrichment (log2) replica A, LmjF.11.0630 [6] | Enrichment (log2) replica B, LmjF.11.0630 [6] | Enrichment (log2) replica A, LmjF.23.0040 [7] | Enrichment (log2) replica B, LmjF.23.0040 [7]
1 | COc1ccc(Cc2c(N)nc(-c3ccccn3)nc2N)cc1 [DDD00057570] | 98.4 ± 2.9% | 98 ± 2.9% | 7 ± 1 µM | 6.9 ± 1 µM | 1.36 log2 | 1.64 log2 | 52% | noncompetitive inhibitor | > 1 | 1.47 log2 | 1.34 log2 |  | 
2 | O=C(c1cccs1)N(CCCn1ccnc1)c1nc2ccccc2s1 [DDD00097924] | 77.8 ± 3.1% | 78% | 11 ± 1 µM | 7.3 ± 1.4 µM | 1.71 log2 | 1.97 log2 |  | competitive mode inhibition |  | 2.19 log2 | 1.99 log2 | 1.31 log2 | 1.21 log2
